Test system: Veillonella in human gut
Experiment: Veillonella level in human fecal samples by 16S rRNA sequencing before and after 2′-Fucosyllactose supplementation
Assay type: in vivo
Excerpt: The genus, Veillonella, were quantified through the fecal samples collected by the human subjects. 16S ribosomal RNA (rRNA) sequencing was used to quantify the relative abundance of Veillonella in the human fecal samples. Veillonella levels were expressed as a percentage of total gut bacteria. Veillonella levels were quantified before the supplementation of 2′-Fucosyllactose and also after the supplementation of 2′-Fucosyllactose. The human subjects were asked to take 2′-Fucosyllactose daily doses ranging from 2000 mg to 4500 mg for 20-60 days with liquid and not to change their regular diet during the period. Four healthy subjects were asked to test their fecal samples and determine the baseline level of Veillonella before taking the 2′-Fucosyllactose. After collecting their initial fecal samples, they were instructed to take 2′-Fucosyllactose daily at doses between 2000 mg-4500 mg per day with liquid and not change their regular diet. The subject was asked to stop the supplementation of 2′-Fucosyllactose after 20-60 days. The subjects were instructed to collect their fecal samples immediately after stopping the supplementation and the fecal samples were tested thereafter. The levels of Veillonella in the fecal samples were quantified by 16S ribosomal RNA (rRNA) sequencing.

## 2′-Fucosyllactose
Average of 4 human subjects, fecal samples, oral 2000-4500 mg daily, 30-45 days, 0.018% before intake, P<0.05
  level of Veillonella (percentage of total gut bacteria) after 2′-Fucosyllactose intake: 0.046%
Daily dosages of 2000-4500 mg, after 20-60 days
  change of the level of Veillonella in the human gut: significantly increased
Human subjects, supplementation for 30-45 days, FIG. 1
  change of the level of Veillonella in the gut: significantly increased
